From patent US10071976B2, “Small molecule fatty acid synthase inhibitors” (Sanford Burnham Prebys Medical Discovery Institute, priority 2014, dated 2018) come the findings set out here.

For orientation: IC50 means the concentration that inhibits the measured activity by half. A low value points to inhibition by little substance.

For this test, the target named is FASN-TE (Homo sapiens, UniProt P49327). Briefly: In-vitro biochemical assay measuring FAS-TE inhibition (OMFH substrate, fluorescence). Here is the method: Min wells: Substrate+No enzyme+DMSO, Max wells: Substrate+Enzyme+DMSO, Sample wells: Substrate+Enzyme+Test compounds, Reference compound: Orlistat (make a fresh 10 mM stock in DMSO each time). 384-well black, low-volume plate (Greiner #784076)
Sequence of FASN-TE (P49327 2207-2511 limits assumed): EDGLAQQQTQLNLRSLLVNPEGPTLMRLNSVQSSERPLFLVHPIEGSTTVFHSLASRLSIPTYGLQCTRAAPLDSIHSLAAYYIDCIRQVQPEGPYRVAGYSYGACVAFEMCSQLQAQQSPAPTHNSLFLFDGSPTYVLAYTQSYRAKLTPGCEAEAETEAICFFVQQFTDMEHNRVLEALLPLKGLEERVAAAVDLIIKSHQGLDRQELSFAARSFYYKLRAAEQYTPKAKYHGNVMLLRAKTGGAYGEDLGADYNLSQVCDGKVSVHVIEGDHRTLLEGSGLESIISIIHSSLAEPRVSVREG
Assay Protocol: • 1) ECHO transfer 160 nL of 125× Compound (or DMSO for control wells) per well. • 2) For Max and Sample wells: Add 10 μL of Enzyme (2×; 1.8 μM) prepared in RXN Buffer. For Min wells: Add 10 μL of RXN Buffer (No Enzyme). • 3) For all wells: Add 10 μL of Substrate (2×; 20 μM) prepared in diH2O+10% DMSO. • 4) Centrifuge plate for 1 minute at 1,000 rpm. • 5) Measure fluorescence every 5 minutes for 1-1.5 hours using the BMG POLARstar (ex 485 nm/em 520 nm; Gain=1015; 25 flashes). • 6) All volumes can be adjusted but the final DMSO concentration should be kept at about 6%.
Data Analysis: • 1) Calculate slopes and express as % Activity (Min wells=0%; Max wells=100%). • 2) Then, using Prism, calculate the IC50 values.
As for `CC(=O)Nc1nc(-c2ccc(S(=O)(=O)N3CCOCC3)cc2)cs1` [Compound 9], the IC50 came out at 13400 nM.
As to `CCC(C)C(=O)Nc1nc(-c2ccc(S(=O)(=O)N3CCCC3)cc2)cs1` (stereo not drawn) [Compound 48], the IC50 was 150 nM.
Then `CCN(CC)S(=O)(=O)c1ccc(-c2csc(NC(=O)C3CCCC3)n2)cc1` [Compound 36], with 1200 nM; and `CCC(CC)C(=O)Nc1nc(-c2ccc(S(=O)(=O)N3CCCC3)cc2)cs1` [Compound 49], with 260 nM; and `CN(C)S(=O)(=O)c1ccc(-c2csc(NC(=O)C3CCCC3)n2)cc1` [Compound 43], with 1600 nM.
`CCC(CC)C(=O)Nc1nc(-c2ccc(S(=O)(=O)N3CCC(C)CC3)cc2)cs1` [Compound 61] displayed an IC50 of 1800 nM.
For `O=C(Nc1nc(-c2ccc(S(=O)(=O)N3CCOCC3)cc2)cs1)c1ccco1` [Compound 11] the value was 37400 nM; for `CCC(C)C(=O)Nc1nc(-c2ccc(S(=O)(=O)N3CCCCC3C)cc2)cs1` (stereo not drawn) [Compound 44], 290 nM.
For `CCCCCC(=O)Nc1nc(-c2ccc(S(=O)(=O)N3CCC(C)CC3)cc2)cs1` [Compound 57], the IC50 is 750 nM.
For `O=S(=O)(c1ccc(-c2csc(-c3cccnc3)n2)cc1)N1CCOCC1` [Compound 81] the value was 2140 nM; for `O=S(=O)(c1ccc(-c2csc(-c3ccc(F)cc3)n2)cc1)N1CCOCC1` [Compound 116], 1480 nM.
On to `CC(C)CC(=O)Nc1nc(-c2ccc(S(=O)(=O)N3CCOCC3)cc2)cs1` [Compound 7], for which the IC50 was found to be 11600 nM.
As for `O=C(COc1cccc(Cl)c1)Nc1nc(-c2ccc(S(=O)(=O)N3CCOCC3)cc2)cs1` [Compound 2], the concentration for half-maximal inhibition (IC50) worked out at 4500 nM.
For `CCN(CC)S(=O)(=O)c1ccc(-c2csc(Cc3ccc(F)cc3)n2)cc1` [Compound 111] the value was 2410 nM; for `CC(C)C(=O)Nc1nc(-c2ccc(S(=O)(=O)N(C)C)cc2)cs1` [Compound 39], 580 nM.
Then `CCN(CC)S(=O)(=O)c1ccc(-c2csc(NC(=O)C(C)C)n2)cc1` [Compound 33], with 280 nM; and `CCN(CC)S(=O)(=O)c1ccc(-c2csc(-c3ccc(Br)cc3)n2)cc1` [Compound 105], with at least 80000 nM.
For `O=S(=O)(c1ccc(-c2csc(Cc3ccccc3)n2)cc1)N1CCOCC1` [Compound 96] the value was 660 nM.
Regarding `CCC(CC)C(=O)Nc1nc(-c2ccc(S(=O)(=O)N(CC)CC)cc2)cs1` [Compound 55], the IC50 turned out to be 330 nM.
Take `O=C(COc1ccccc1)Nc1nc(-c2ccc(S(=O)(=O)N3CCOCC3)cc2)cs1` [Compound 3]: it took 420 nM to reach half-maximal inhibition (IC50).
Then `CCCCCC(=O)Nc1nc(-c2ccc(S(=O)(=O)N3CCCC3)cc2)cs1` [Compound 50], with 140 nM; and `O=S(=O)(c1ccc(-c2csc(-c3cccnc3)n2)cc1)N1CCCC1` [Compound 69], with 1510 nM; and `O=C(Nc1nc(-c2ccc(S(=O)(=O)N3CCCC3)cc2)cs1)C1CCC1` [Compound 29], with 400 nM.
`CCCCCCC(=O)Nc1nc(-c2ccc(S(=O)(=O)N(CC)CC)cc2)cs1` [Compound 54]: the IC50 was 1400 nM.
Then `CN(C)S(=O)(=O)c1ccc(-c2csc(-c3cccnc3)n2)cc1` [Compound 83], with 5210 nM; and `CCN(CC)S(=O)(=O)c1ccc(-c2csc(C(C)C)n2)cc1` [Compound 101], with 11400 nM; and `CC(C)CC(=O)Nc1nc(-c2ccc(S(=O)(=O)N3CCCC3)cc2)cs1` [Compound 52], with 1600 nM.
`CN(C)S(=O)(=O)c1ccc(-c2csc(NC(=O)C3CC3)n2)cc1` [Compound 41]: half-maximal inhibition (IC50) required 1200 nM.
Regarding `CCCCC(=O)Nc1nc(-c2ccc(S(=O)(=O)N3CCCC3)cc2)cs1` [Compound 8], the IC50 was found to be 200 nM.
Then `CCC(=O)Nc1nc(-c2ccc(S(=O)(=O)N3CCC(C)CC3)cc2)cs1` [Compound 23], with above 80000 nM.
For `CC(C)C(=O)Nc1nc(-c2ccc(S(=O)(=O)N3CCCC3)cc2)cs1` [Compound 27] the value was 277 nM; for `CCC(C)C(=O)Nc1nc(-c2ccc(S(=O)(=O)N3CCOCC3)cc2)cs1` (stereo not drawn) [Compound 15], 310 nM; for `CC(C)(C)OC(=O)Nc1nc(-c2ccc(S(=O)(=O)N3CCOCC3)cc2)cs1` [Compound 21], 29000 nM.
For the molecule `CCN(CC)S(=O)(=O)c1ccc(-c2csc(Cc3cccc(I)c3)n2)cc1` [Compound 112], inhibition was half-maximal at 5010 nM (IC50).
In turn, `CCN(CC)S(=O)(=O)c1ccc(-c2csc(-c3ccc(F)cc3)n2)cc1` [Compound 103] yielded an IC50 of 1110 nM.
In turn, `CCN(CC)S(=O)(=O)c1ccc(-c2csc(NC(=O)C3CC3)n2)cc1` [Compound 35] gave an IC50 of 990 nM.
As to `O=C(Nc1nc(-c2ccc(S(=O)(=O)N3CCCC3)cc2)cs1)C1CCCC1` [Compound 30], the IC50 worked out at 730 nM.
For the molecule `CC(C)CC(=O)Nc1nc(-c2ccc(S(=O)(=O)N3CCC(C)CC3)cc2)cs1` [Compound 59], half-maximal inhibition (IC50) was put at 60400 nM.
Turning to `O=S(=O)(c1ccc(-c2csc(Nc3ccc(F)cc3)n2)cc1)N1CCCC1` [Compound 80], the IC50 came to 14800 nM.
In turn, `O=C(Nc1nc(-c2ccc(S(=O)(=O)N3CCOCC3)cc2)cs1)c1cccs1` [Compound 10] gave an IC50 of 32900 nM.
Then `CCN(CC)S(=O)(=O)c1ccc(-c2csc(-c3cccc(Br)c3)n2)cc1` [Compound 107], with at least 80000 nM; and `CCCCC(=O)Nc1nc(-c2ccc(S(=O)(=O)N3CCSCC3)cc2)cs1` [Compound 12], with 710 nM.
As for `CCN(CC)S(=O)(=O)c1ccc(-c2csc(NC(=O)CC(C)C)n2)cc1` [Compound 99], the IC50 stood at 19000 nM.
The molecule `O=C(Nc1nc(-c2ccc(S(=O)(=O)N3CCOCC3)cc2)cs1)C1CCC1` [Compound 18] returned an IC50 of 3600 nM.
For `CC1CCN(S(=O)(=O)c2ccc(-c3csc(NC(=O)C(C)C)n3)cc2)CC1` [Compound 24] the value was 660 nM.
Then `CCCCCCC(=O)Nc1nc(-c2ccc(S(=O)(=O)N3CCCC3)cc2)cs1` [Compound 51], with 850 nM; and `CCC(=O)Nc1nc(-c2ccc(S(=O)(=O)N(CC)CC)cc2)cs1` [Compound 31], with 4250 nM; and `CC1CCN(S(=O)(=O)c2ccc(-c3csc(NC(=O)C4CC4)n3)cc2)CC1` [Compound 25], with above 80000 nM.
In turn, `CCN(CC)S(=O)(=O)c1ccc(-c2csc(Cc3ccccc3F)n2)cc1` [Compound 109] showed an IC50 of 1720 nM.
For `CC(C)c1nc(-c2ccc(S(=O)(=O)N3CCOCC3)cc2)cs1` [Compound 115] the value was 21700 nM.
Molecule `CCCCCC(=O)Nc1nc(-c2ccc(S(=O)(=O)N(CC)CC)cc2)cs1` [Compound 53] came in with an IC50 of 200 nM.
With `CC(C)C(=O)Nc1nc(-c2ccc(S(=O)(=O)N3CCOCC3)cc2)cs1` [Compound 6], the IC50 worked out at 820 nM.
For `CCN(CC)S(=O)(=O)c1ccc(-c2csc(Cc3ccccc3OC)n2)cc1` [Compound 113] the value was 6920 nM.
Then `CCCCC(=O)Nc1nc(-c2ccc(S(=O)(=O)N3CCCCC3C)cc2)cs1` (stereo not drawn) [Compound 45], with 380 nM; and `COc1ccccc1C(=O)Nc1nc(-c2ccc(S(=O)(=O)N3CCOCC3)cc2)cs1` [Compound 5], with 11900 nM; and `CCCCCCCC(=O)Nc1nc(-c2ccc(S(=O)(=O)N3CCCCC3C)cc2)cs1` (stereo not drawn) [Compound 47], with 4300 nM.
For `CCC(C)C(=O)Nc1nc(-c2ccc(S(=O)(=O)N3CCC(C)CC3)cc2)cs1` (stereo not drawn) [Compound 60] the value was 410 nM.
As to `CCCCCCC(=O)Nc1nc(-c2ccc(S(=O)(=O)N3CCC(C)CC3)cc2)cs1` [Compound 58], the midpoint of inhibition, the IC50, lay at 4500 nM.
Molecule `CCN(CC)S(=O)(=O)c1ccc(-c2csc(C)n2)cc1` [Compound 82] yielded an IC50 of at least 80000 nM.
Then `CC(=O)Nc1nc(-c2ccc(S(=O)(=O)N3CCSCC3)cc2)cs1` [Compound 13], with above 80000 nM; and `O=C(Nc1nc(-c2ccc(S(=O)(=O)N3CCCC3)cc2)cs1)C1COc2ccccc2O1` (stereo not drawn) [Compound 63], with 1310 nM.
For `CCN(CC)S(=O)(=O)c1ccc(-c2csc(NC(=O)C3CC3)n2)cc1` [Compound 34] the value was 2300 nM; for `CCN(CC)S(=O)(=O)c1ccc(-c2csc(-c3ccc(Br)cc3C)n2)cc1` [Compound 106], at least 80000 nM; for `CCN(CC)S(=O)(=O)c1ccc(-c2csc(C(C)(C)C)n2)cc1` [Compound 102], 12600 nM.
For `O=S(=O)(c1ccc(-c2csc(-c3cccnc3)n2)cc1)N1CCCCC1` [Compound 64] the value was 2680 nM; for `O=C(Nc1nc(-c2ccc(S(=O)(=O)N3CCCC3)cc2)cs1)C1CC1` [Compound 28], 560 nM.
The molecule `O=C(Nc1nc(-c2ccc(S(=O)(=O)N3CCOCC3)cc2)cs1)C1CCCC1` [Compound 19] showed an IC50 above 80000 nM.
For `CCC(=O)Nc1nc(-c2ccc(S(=O)(=O)N3CCOCC3)cc2)cs1` [Compound 14] the value was 4500 nM; for `CCC(=O)Nc1nc(-c2ccc(S(=O)(=O)N(C)C)cc2)cs1` [Compound 40], 1100 nM.
The molecule `O=C(Nc1nc(-c2ccc(S(=O)(=O)N3CCOCC3)cc2)cs1)C1CC1` [Compound 17] yielded an IC50 of 5200 nM.
Turning to `CCN(CC)S(=O)(=O)c1ccc(-c2csc(Cc3cccc(F)c3)n2)cc1` [Compound 110], the IC50 was 3150 nM.
Then `O=S(=O)(c1ccc(-c2csc(N3CCCC3)n2)cc1)N1CCOCC1` [Compound 98], with 1180 nM.
